Results reported in ChEMBL document CHEMBL5143668, “Modular synthesis of 2,4-diaminoanilines as CNS drug-like non-covalent inhibitors of asparagine endopeptidase” (Bioorg Med Chem, 2022).

What was measured:
[1] = Dissociation constant, pKa of compound; type: physicochemical
L929 = experiment: Cytotoxicity of mouse L929 cells assessed as reduction in cell viability at 5 to 500 nM measured after 24 hrs by MTT assay; type: toxicity, cell-based; conditions: l929, 24 h, 0.5 µM, dose 5-500 nM
Legumain = biological target: T1, Legumain (Homo sapiens, UniProt Q99538); experiment: Inhibition of recombinant human Asparagine endopeptidase preincubated for 5 mins followed by Z-Ala-Ala-Asn-AMC substrate addition measured after 2 hrs by microplate reader
T1 sequence (Q99538 whole entry): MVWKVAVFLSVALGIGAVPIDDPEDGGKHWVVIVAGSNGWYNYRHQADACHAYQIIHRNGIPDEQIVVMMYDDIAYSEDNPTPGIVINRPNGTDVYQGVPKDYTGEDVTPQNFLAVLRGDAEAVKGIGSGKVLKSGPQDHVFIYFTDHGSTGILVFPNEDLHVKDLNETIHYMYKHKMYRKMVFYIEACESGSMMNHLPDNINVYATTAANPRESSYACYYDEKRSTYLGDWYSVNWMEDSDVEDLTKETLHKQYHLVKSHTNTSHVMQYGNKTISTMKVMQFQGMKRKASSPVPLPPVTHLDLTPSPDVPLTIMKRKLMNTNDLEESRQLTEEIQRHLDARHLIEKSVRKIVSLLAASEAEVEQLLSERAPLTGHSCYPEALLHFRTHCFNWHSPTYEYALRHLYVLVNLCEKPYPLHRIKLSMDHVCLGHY

Legumain (Homo sapiens) = biological target: T2, Legumain (Homo sapiens) (UniProt Q99538); experiment: Inhibition of recombinant human Asparagine endopeptidase at 10 uM preincubated for 5 mins followed by Z-Ala-Ala-Asn-AMC substrate addition measured after 2 hrs by microplate reader relative to control
T2 sequence (whole entry): T1 sequence (Q99538 whole entry)

Row | pKa [1] | IC50 (Legumain) [nM] | inhibition (Legumain (Homo sapiens)) [%] | SMILES | Activity (L929)
1 | 8.54 | 844 | 100 | Nc1ccc(N2CCOCC2)cc1N1CCOCC1 | Non-Toxic
2 | 6.96 | > 5000 | 48 | Nc1ccc(N2CCOCC2)cc1N1CCC[C@H]1CO | –
3 | 10.1 | 757 | 81 | Nc1ccc(N2CCSCC2)cc1N1CCSCC1 | –
4 | 8.8 | 89 | 98 | CCOC(=O)C1CCN(c2cc(N3CCOCC3)ccc2N)CC1 | Non-Toxic
5 | 5.61 | > 5000 | 43 | Nc1ccc(N2CCSCC2)cc1Cl | –
6 | 8.62 | 547 | 100 | Nc1ccc(N2CCOCC2)cc1N1CCC2(CC1)OCCO2 | –
7 | 4.05 | > 5000 | 47 | Nc1ccc(N2CCOCC2)cc1Cl | –
8 | 6.96 | > 5000 | 42 | Nc1ccc(N2CCOCC2)cc1N1CCCC1 | –
9 | 8.54 | 498 | 89 | Nc1ccc(N2CCOCC2)cc1N1CCSCC1 | –
10 | 10.6 | 4830 | 53 | CCOC(=O)C1CCN(c2ccc(N)c(N3CCC(C(=O)OCC)CC3)c2)CC1 | Non-Toxic
